Values joined by “and” are separate entries in the source; they are usually repeats but may differ in a detail not shown here. Equal entries are not always repeated. Ends that are not written are not given here.
How the values were obtained:
CT26.CL25 cells [1] = assay: Cellular uptake of fluorescein-labeled mRNA, flow cytometry; assay type: cell-based, mouse; details: CT26.CL25, 3 μg (6.8 nM) fluorescein-labeled mCherry mRNA with CPP or Lipofectamine 3000, serum-free media, 3 h, n = 3
Protocol: For the cellular uptake test, mCherry mRNA was labeled with fluorescein dye using the Label IT nucleic acid labeling kit (MIR 3200) (Mirus Bio, Madison, WI, USA). CT26.CL25 cells plated on a 35 mm glass bottom dish were incubated in 1.5 mL of serum-free media for 2 h. […] After treatment, CT26.CL25 cells were collected with PBS and FITC-positive cells were measured by a CytoFLEX flow cytometer (Beckman Coulter, Palo Alto, CA, USA) using FlowJo v10 software.

[2] = Size and zeta-potential of CPP/mRNA complexes by DLS; assay type: physicochemical; details: for Particle Size / PDI / Zeta Potential: CPP/mRNA complex at the N/P ratio of Table 2; for Particle Size / PDI: DLS; for Particle Size / Zeta Potential: Zetasizer Nano ZS; for Particle Size: 50 μg CPP in 1 mL distilled water; for PDI / Zeta Potential: distilled water; for N/P Ratio (lowest N/P ratio to form the nanocomplexes): CPP/mRNA complex, amine groups of peptide to phosphate groups of mRNA
Protocol: The size and zeta-potential of CPP/mRNA complexes were measured by dynamic light scattering (DLS) using Zetasizer Nano ZS (Malvern Instruments, Malvern, UK); 50 μg of CPPs mixed with an optimized amount of mRNA were diluted in 1 mL of distilled water and then transferred to a cuvette.

CT26.CL25 cells [3] = assay: mCherry protein expression, fluorescence microscopy; assay type: cell-based, mouse; details: CT26.CL25, CPP/mCherry mRNA 6.8 nM, 24 h after treatment, n = 3
Protocol: (§1) To measure expression efficiency, cells seeded on a 35 mm glass bottom dish were incubated in 1.5 mL of serum-free media for 2 h. After incubation, mCherry mRNA with Lipofectamine 3000 or CPPs were treated for 3 h, washed, and incubated in complete medium for an additional 21 h. The expression of mCherry protein was visualized with a fluorescence microscope (EVOS M7000, ThermoFisher). The expression efficiency was calculated by counting the number of cells expressing fluorescence in the total number of cells. For quantification of expression efficiency, flow cytometry analyses were examined after 24 h treatment with CPP/EGFP mRNA. CT26.CL25 cells were collected with PBS and EGFP-expressing cells were measured by a CytoFLEX flow cytometer (Beckman Coulter) using FlowJo v10 software.

mCherry mRNA = assay: Gel shift assay, complexation capacity of CPP with mRNA; assay type: physicochemical; details: 350 ng mCherry mRNA, n = 3
Protocol: The mRNA was diluted in RNase-free water at 100 ng/μL and incubated with CPPs (1 μg/μL in RNase-free water) at room temperature (RT) for 1 h at 200 rpm. For in vitro studies, CPP/mRNA complexes were diluted with 1× PBS by adding 10× PBS after complexation. To visualize the complexation of mRNA and CPP, 350 ng of mCherry mRNA was mixed with increasing amounts of CPP and a gel shift assay was performed using a 1% agarose gel. Complexation capacity was measured based on mRNA band intensities by Image J. Complexation capacity (%) = 100 − ((Band intensity of mRNA)/(Band intensity of initial mRNA) × 100))

CT26.CL25 cells [4] = assay: EGFP expression, flow cytometry; assay type: cell-based, mouse; details: CT26.CL25, EGFP mRNA 6.8 nM, 24 h, right plot of Figure 6B (amphipathic CPPs)
Protocol: as §1

| Substance | FITC-positive cells (cellular uptake) (CT26.CL25 cells [1]) | Particle Size [2] | PDI [2] | Zeta Potential [2] | N/P Ratio (lowest N/P ratio to form the nanocomplexes) [2] | mCherry-positive cells (CT26.CL25 cells [3]) | amount of CPP at which complete complexes formed (mCherry mRNA) [nmol] | EGFP-expressing cells (CT26.CL25 cells [4]) [%] |
| --- | --- | --- | --- | --- | --- | --- | --- | --- |
| VSRRRRRRGGRRRR [LMWP, low molecular weight protamine, cationic cell-penetrating peptide, synthesized by Peptron] | 24.1% | 129.5 (±0.3) nm | 0.22 | +22.5 (±0.0) mV | 1.9 |  |  |  |
| WEARLARALARALARHLARALARALRACEA [amphipathic cell-penetrating peptide, synthesized by Peptron] | 99.9% and > 85% | 174.6 (±3.7) nm | 0.23 | +20.2 (±1.7) mV | 9.7 | 28.9% | 1.0 | 29.5 |
| Stearyl-RRRRRRRR [STR-Arg8, Stearyl-poly-Arginine8, amphipathic CPP, stearyl moiety introduced into Arg8] | 87.3% and > 85% | 156.8 (±4.7) nm | 0.28 | +28.6 (±0.3) mV | 7.8 | 4.9% |  | 14.6 |
| Penetratin | 28.7% |  |  |  |  | incapable of protein expression |  |  |

Reference: paper PMC9227323, “The Potential of Cell-Penetrating Peptides for mRNA Delivery to Cancer Cells” (Pharmaceutics, 2022)
